Assay results: BigSolDB 2.1

CN/C(=C\[N+](=O)[O-])NCCSCc1csc(CN(C)C)n1
solubility (mole fraction)
Conditions	in acetone	in ethanol	in ethyl acetate	in methanol	in water
273.15 K	0.00283	0.00287	0.00029	0.0167	0.0225
278.15 K	0.0034	0.00381	0.00033	0.0211	0.0232
283.15 K	0.00432	0.00487	0.00043	0.027	0.0238
288.15 K	0.00552	0.00653	0.00058	0.0347	0.0247
293.15 K	0.00701	0.00867	0.00063	0.0447	0.0257
298.15 K	0.00806	0.0133	0.00082	0.0589	0.0297
303.15 K	0.0103	0.0167	0.00093	0.0765	0.0325
308.15 K	0.0128	0.0212	0.00148	0.103	0.036
313.15 K	0.0164	0.0301	0.00187	0.147	0.0402
318.15 K	0.0235	0.0376	0.00219	0.203	0.0463
323.15 K	0.0385	0.062	0.00269	–	0.0535
328.15 K	–	0.0955	0.00343	–	0.0653
333.15 K	–	0.179	0.0042	–	0.0809
338.15 K	–	–	0.0055	–	0.109
343.15 K	–	–	–	–	0.164
